Source: BindingDB's records for doi:10.1021/jm00070a001 (Warner-Lambert, 1993)
pIC50: −log10 of the molar value. Where a SMILES comes first, the peptide text is derived from it. [ ]: non-standard residue; d: D form.

Target: Endothelin-1 receptor (Oryctolagus cuniculus)
Test: Effective concentration against ET A receptor from rabbit renal artery vascular smooth muscle cells

pIC50	Compound
< 5.00	CC[C@H](C)[C@H](NC(=O)[C@H](CC(=O)O)NC(=O)[C@H](CC(C)C)NC(=O)[C@H](N)Cc1ccccc1)C(=O)N[C@H](C(=O)N[C@@H](Cc1c[nH]c2ccccc12)C(=O)O)[C@@H](C)CC [D-Phe-Leu-Asp-Ile-Ile-Trp]
< 5.00	CC[C@H](C)[C@H](NC(=O)[C@H](CC(=O)O)NC(=O)[C@H](CC(C)C)NC(=O)[C@@H](Cc1ccccc1)NC(C)=O)C(=O)N[C@@H](Cc1c[nH]c2ccccc12)C(=O)O [(S)-3-[(R)-2-((1S,5S)-2-Acetylamino-3-phenyl-propionylamino)-4-methyl-pentanoylamino]-N-{(S)-1-[(S)-1-carboxy-2-(1H-indol-3-yl)-ethylcarbamoyl]-2-methyl-butyl}-succinamic acid] (Ac-[dF]LDIW-OH)
< 5.00	CC[C@H](C)[C@H](NC(=O)[C@@H](NC(=O)[C@@H](Cc1ccccc1)NC(C)=O)[C@@H](C)CC)C(=O)N[C@@H](Cc1c[nH]c2ccccc12)C(=O)O [Ac-D-Phe-Ile-Ile-Trp] (Ac-[dF]IIW-OH)
5.10	CC[C@H](C)[C@H](NC(=O)[C@H](CC(=O)O)NC(=O)[C@H](CC(C)C)NC(=O)[C@@H](Cc1ccccc1)NC(C)=O)C(=O)N[C@@H](C)C(=O)N[C@@H](Cc1c[nH]c2ccccc12)C(=O)O [Ac-D-Phe-Leu-Asp-Ile-Ala-Trp] (Ac-[dF]LDIAW-OH)
6.40	CC[C@H](C)[C@H](NC(=O)[C@H](CC(=O)O)NC(=O)[C@H](CC(C)C)NC(=O)[C@@H](Cc1ccc(O)cc1)NC(C)=O)C(=O)N[C@H](C(=O)N[C@@H](Cc1c[nH]c2ccccc12)C(=O)O)[C@@H](C)CC (Ac-[dY]LDIIW-OH)
< 5.00	CC[C@H](C)[C@H](NC(=O)[C@H](CC(=O)O)NC(=O)[C@H](CC(C)C)NC(=O)[C@@H](Cc1ccccc1)NC(C)=O)C(=O)N[C@H](C(=O)NC(Cc1cnc[nH]1)C(=O)O)[C@@H](C)CC (mixture of isomers) [Ac-D-Phe-Leu-Asp-Ile-Ile-DL-His]
< 5.00	CC[C@H](C)[C@H](NC(=O)[C@H](CC(=O)O)NC(=O)[C@H](CC(C)C)NC(=O)[C@@H](Cc1ccccc1)NC(C)=O)C(=O)N[C@H](C(=O)N[C@@H](Cc1ccc(O)cc1)C(=O)O)[C@@H](C)CC [Ac-D-Phe-Leu-Asp-Ile-Ile-Tyr] (Ac-[dF]LDIIY-OH)
5.44	CC[C@H](C)[C@H](NC(=O)[C@H](C)NC(=O)[C@H](CC(=O)O)NC(=O)[C@H](CC(C)C)NC(=O)[C@@H](Cc1ccccc1)NC(C)=O)C(=O)N[C@@H](Cc1c[nH]c2ccccc12)C(=O)O [Ac-D-Phe-Leu-Asp-Ala-Ile-Trp] (Ac-[dF]LDAIW-OH)
4.85	CC[C@H](C)[C@H](NC(=O)[C@H](CC(=O)O)NC(=O)[C@H](CC(C)C)NC(=O)[C@@H](Cc1ccccc1)NC(C)=O)C(=O)N[C@H](C(=O)N[C@@H](Cc1csc2ccccc12)C(=O)O)[C@@H](C)CC [Ac-D-Phe-Leu-Asp-Ile-Ile-Bta]
